# In a melting point compilation (Tetko et al.):
row,SMILES,melting point [°C]
1,Brc1ccc(Cc2nnn[nH]2)cc1,172 to 174
2,O=c1cc(CCl)c2cc3c(cc2o1)CCC3,142 to 144
3,NC(=S)COc1ccc(Cl)cc1,107 to 111
4,Cc1cc(N)nn1-c1ccccc1,79 to 81
5,CC(=O)NCCc1ccc(C(=O)O)cc1,175 to 177
6,CC(C)(C)n1nc(C(=O)O)cc1C1CC1,119 to 121
7,NC(Cc1ccc2c(c1)OCO2)C(=O)O (centres undefined),249 to 251
8,CC(=O)NCCNC(=O)c1ccccc1N,128 to 130
9,COCCNc1nc2ccccc2[nH]1,170 to 172
10,COc1ccc(-c2nc(N)sc2-c2ccc(OC)cc2)cc1,207 to 209
11,ClCc1nc(-c2ccc3c(c2)OCO3)no1,50 to 52
12,ClCc1nnc(-c2c(Cl)cccc2Cl)o1,46 to 48
13,O=c1[nH]c(-c2ccccc2Cl)cs1,182 to 184
14,Brc1ccccc1Oc1cccnn1,109 to 111
15,NCc1ccc(Oc2ccc(F)cc2)nc1,51 to 53
16,Cc1cccc(COc2cccc(CC(=O)O)c2)c1,91 to 93
17,N#Cc1cc(Br)c2cc[nH]c2c1,139 to 141
18,CS(=O)(=O)c1ccc(N)cc1Cl,193 to 195
19,CC1(C2CC2)NC(=O)N(CC(=O)O)C1=O (centres undefined),170 to 172
20,CCOc1ccc(S(=O)(=O)N2CCNCC2)cc1OCC,132 to 134
21,Nn1cnc2c(cnn2-c2ccccc2)c1=O,233 to 235
22,Cc1cnn(Cc2cc(C(=O)O)no2)c1,163 to 165
23,N#Cc1ccc(-c2nnco2)cc1,142 to 144
24,Cc1cc2occ(CC(=O)O)c2cc1C(C)C,141 to 143
25,CC(C)(C)c1ccc(C(=O)NCCC(=O)O)cc1,129 to 131
26,Cc1nc(S)c2c(=O)n(C)c(=O)n(CC(C)C)c2n1,172 to 174

row,SMILES,melting point [°C]
1,Nc1cccc(CS(=O)(=O)c2ccccc2)c1,132 to 134
2,Cc1ccc(N)cc1S(=O)(=O)N1CCOCC1,186 to 188
3,CCOc1ccccc1OCC(=O)O,44 to 46
4,CC(Cl)C(=O)N1CCN(c2ncccn2)CC1 (centres undefined),96 to 98
5,O=C(c1ccccc1)c1c(Cl)cccc1Cl,82 to 84
6,NNC(=O)c1sc2cc(F)ccc2c1Cl,239 to 241
7,C=CCN1C(=O)C(=O)N(CC(=O)O)C1=O,143 to 145
8,Cc1ccc2c(C)cc(Cl)nc2c1,49 to 51
9,NS(=O)(=O)CCN1CCNCC1,144 to 146
10,O=C1Nc2ccccc2N2CCC12 (centres undefined),169 to 171
11,COC(=O)c1cc(O)ccc1[N+](=O)[O-],101 to 103
12,CCn1c(N)cc(=O)[nH]c1=O,125 to 127
13,N=C(N)Nc1nc2ccccc2o1,179 to 181
14,O=C(O)c1ccc(Br)c(S(=O)(=O)Cl)c1,181 to 183
15,O=C(O)c1c[nH]cc1-c1ccc2c(c1)OCCO2,196 to 198
16,NC(=NO)c1ccsc1,66 to 68
17,COC(=O)c1c(Cl)ccc([N+](=O)[O-])c1N,89 to 91
18,COc1ccc(-c2nc(N)cc(=O)[nH]2)cc1,271 to 273
19,O=Cc1csc(-c2cccs2)n1,80 to 82
20,O=C(O)COc1ccc(C2SCCS2)cc1,137 to 139
21,CCc1c(C)nc2ccccc2c1N,148 to 150
22,CC(=O)c1nc2ccccc2n1C,67 to 69
23,N#Cc1c(NC(=O)CCl)sc2c1CCC2,176 to 178
24,O=C(O)c1ccc(-c2noc(-c3ccc(F)cc3)n2)cc1,291 to 293
25,Nc1nnc(Cc2ccc(F)cc2)s1,170 to 172
26,NC(=S)C1CN(C(=O)OCc2ccccc2)CCO1 (centres undefined),147 to 149

row,SMILES,melting point [°C]
1,CN(C)C(=O)c1ccccc1O,161 to 163
2,Oc1ccc2cncnc2c1,216 to 218
3,NC(=O)Nc1ccccc1[N+](=O)[O-],186 to 188
4,COc1ccc(C(C)=O)cc1CS(=O)CC(=O)O (centres undefined),93 to 95
5,Cc1n[nH]c(C)c1CC(=O)O,151 to 155
6,CCOC(=O)/C(C#N)=C\Nc1ccc(Cl)cc1F,154 to 156
7,O=[N+]([O-])c1cc(S(=O)(=O)Nc2nc3ccccc3nc2Cl)ccc1Cl,180 to 182
8,O=C(O)CSC1CCS(=O)(=O)C1 (centres undefined),< 17
9,CC1CNc2ccccc2NC1,82 to 84
10,O=C(O)CNC1=NCCCCC1,163 to 165
11,CCc1ccccc1NC(=O)CC(C)=O,89 to 91
12,O=C(O)c1c[nH]c(Br)c1,119 to 121
13,Cc1noc(C)c1COc1ccccc1C(=O)O,172 to 174
14,N#Cc1cc(F)ccc1N,92 to 96
15,CNc1ccc(C(=O)N2CCOCC2)cc1C,107 to 109
16,N#Cc1cc([N+](=O)[O-])ccc1O,196 to 198
17,Cc1c(C(=O)O)cccc1S(=O)(=O)Cl,169 to 171
18,NCC(O)COc1ccc(I)cc1 (centres undefined),129 to 131
19,Cn1cc(S(N)(=O)=O)cn1,121 to 123
20,CCOC(=O)c1nnc2ccccc2c1N,239 to 241
21,CS(=O)(=O)c1cc(C(=O)O)cs1,204 to 206
22,CN(C)C(=O)CCn1cc(Br)cn1,64 to 66
23,Clc1cc(C2CC2)nc2ncnn12,99 to 101
24,O=c1[nH]cnc2c(-c3ccccc3)nsc12,256 to 258
25,CC1CC(C)CN(S(=O)(=O)c2ccc(N)cc2)C1 (centres undefined),157 to 159
26,Cc1ccc([N+](=O)[O-])c2cccnc12,87 to 89

row,SMILES,melting point [°C]
1,COC(=O)c1cccc(N2CC(=O)NC2=O)c1,189 to 191
2,O=Cc1csc(-c2ncccn2)n1,197 to 199
3,Nc1c(F)cccc1C(=O)O,182 to 186
4,CCOc1cc(C(=O)O)ccc1OCc1ccncc1,238 to 240
5,O=C1C(Br)CCN1c1c(F)cccc1F (centres undefined),79 to 81
6,OCc1nc2ccccc2o1,59 to 61
7,O=C(Nc1ccc(F)cc1)C1CCc2ccccc2N1 (centres undefined),115 to 117
8,ClCc1nnnn1-c1ccccc1Br,45 to 47
9,CC(C)(C)n1cc(C(=O)O)c(Br)n1,163 to 165
10,NC(=O)NCC(F)(F)F,110 to 112
11,NC(CC(=O)NC1CCCCC1)=NO,167 to 169
12,Nc1[nH]ncc1-c1ccccc1Br,129 to 131
13,Cc1nn(-c2ccc(F)cc2)c(Cl)c1C=O,124 to 126
14,CCOC(=O)NC(=N)N,104 to 106
15,O=Cc1ccc(-c2ccc(Cl)cc2)s1,83 to 87
16,CC(C)c1ccc(C(=O)O)c(C(C)C)c1,99 to 101
17,CS(=O)(=O)Nc1cc(C(=O)O)ccc1Cl,275 to 277
18,CCNS(=O)(=O)c1cccc(F)c1,49 to 51
19,O=C(O)CN(Cc1ccccc1)S(=O)(=O)c1ccc(Cl)cc1,149 to 151
20,Nc1cccc(S(=O)(=O)Nc2ccccc2)c1,127 to 129
21,Cc1ccc(CC(=O)Nc2cccc(C(C)O)c2)cc1 (centres undefined),121 to 123
22,CC(C)C(Nc1ccc(C(F)(F)F)cc1Cl)C(=O)O (centres undefined),128 to 132
23,CSc1cc(C(=O)O)c(Cl)cc1Cl,192 to 194
24,NC(CCN1CCCCC1)=NO,137 to 139
25,N#Cc1ccccc1OCc1ccccc1,70 to 72
26,Cc1ccccc1Sc1ccc(C(=O)O)cc1,178 to 180
